{"source": "patent US9988371B2", "about": "“Benzimidazole analogues and related methods” (The Arizona Board of Regents, on Behalf of the University …, priority 2014, dated 2018)", "key": {"RET wild type": {"molecular_target": "T1, RET wild type (Homo sapiens, UniProt P07949)", "T1 construct": "purchased Invitrogen", "T1 sequence (P07949 724-1016 limits assumed)": "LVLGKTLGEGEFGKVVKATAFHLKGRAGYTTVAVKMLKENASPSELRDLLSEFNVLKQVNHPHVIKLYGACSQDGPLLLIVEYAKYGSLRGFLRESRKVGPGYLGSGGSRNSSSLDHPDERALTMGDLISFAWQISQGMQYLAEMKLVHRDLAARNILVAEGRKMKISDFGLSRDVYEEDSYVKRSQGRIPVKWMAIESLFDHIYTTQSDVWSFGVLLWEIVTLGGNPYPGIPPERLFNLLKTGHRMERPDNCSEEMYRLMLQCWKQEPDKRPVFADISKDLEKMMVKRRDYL", "experiment": "RET biochemical assay (EZ Reader mobility shift)", "settings": "30 min pre-incubation, 200 μM ATP, exact potency beyond measurable limit", "procedure": "Suitable screening assays for RET and VEGFR2 small molecule kinase inhibitors (from a kinase-directed fragment (KDF) library) were established. The RET kinase assay utilizes an EZ Reader Electrophoresis Mobility Chip Instrument (Caliper Life Science). In the assay, 2 nM recombinant RET enzyme (Invitrogen) is pre-incubated with a small molecule inhibitor or control buffer for 30 min to allow the Type-II kinase inhibitor to trap the DFG-out conformation to which the inhibitors bind. This class of inhibitors is indirectly competitive with ATP, and slow binding kinetics (low kd) allow the inhibitors to appear non-competitive and pseudo-irreversible in nature. Because of the non-competitive nature of these inhibitors, a more biologically relevant concentration of ATP substrate (200 μM) was incorporated in this assay. After 30 min of pre-incubation, a substrate mix containing […], 20 mM MgCl2 and 1.5 μM fluorescently labeled RET substrate peptide (Caliper LS, peptide 22; Perkin Elmer, USA) was added. The conversion level of the RET substrate peptide was then determined utilizing the EZ Reader instrument. […]\nThe RET kinase assay utilizes a microfluidics based instrument for direct kinase activity readout (Caliper Life Science). […] The conversion level of the RET substrate peptide was determined utilizing the EZ Reader instrument. […]"}, "VEGFR2": {"molecular_target": "VEGFR2 (Homo sapiens, UniProt P35968)", "sequence (P35968 20-1356)": "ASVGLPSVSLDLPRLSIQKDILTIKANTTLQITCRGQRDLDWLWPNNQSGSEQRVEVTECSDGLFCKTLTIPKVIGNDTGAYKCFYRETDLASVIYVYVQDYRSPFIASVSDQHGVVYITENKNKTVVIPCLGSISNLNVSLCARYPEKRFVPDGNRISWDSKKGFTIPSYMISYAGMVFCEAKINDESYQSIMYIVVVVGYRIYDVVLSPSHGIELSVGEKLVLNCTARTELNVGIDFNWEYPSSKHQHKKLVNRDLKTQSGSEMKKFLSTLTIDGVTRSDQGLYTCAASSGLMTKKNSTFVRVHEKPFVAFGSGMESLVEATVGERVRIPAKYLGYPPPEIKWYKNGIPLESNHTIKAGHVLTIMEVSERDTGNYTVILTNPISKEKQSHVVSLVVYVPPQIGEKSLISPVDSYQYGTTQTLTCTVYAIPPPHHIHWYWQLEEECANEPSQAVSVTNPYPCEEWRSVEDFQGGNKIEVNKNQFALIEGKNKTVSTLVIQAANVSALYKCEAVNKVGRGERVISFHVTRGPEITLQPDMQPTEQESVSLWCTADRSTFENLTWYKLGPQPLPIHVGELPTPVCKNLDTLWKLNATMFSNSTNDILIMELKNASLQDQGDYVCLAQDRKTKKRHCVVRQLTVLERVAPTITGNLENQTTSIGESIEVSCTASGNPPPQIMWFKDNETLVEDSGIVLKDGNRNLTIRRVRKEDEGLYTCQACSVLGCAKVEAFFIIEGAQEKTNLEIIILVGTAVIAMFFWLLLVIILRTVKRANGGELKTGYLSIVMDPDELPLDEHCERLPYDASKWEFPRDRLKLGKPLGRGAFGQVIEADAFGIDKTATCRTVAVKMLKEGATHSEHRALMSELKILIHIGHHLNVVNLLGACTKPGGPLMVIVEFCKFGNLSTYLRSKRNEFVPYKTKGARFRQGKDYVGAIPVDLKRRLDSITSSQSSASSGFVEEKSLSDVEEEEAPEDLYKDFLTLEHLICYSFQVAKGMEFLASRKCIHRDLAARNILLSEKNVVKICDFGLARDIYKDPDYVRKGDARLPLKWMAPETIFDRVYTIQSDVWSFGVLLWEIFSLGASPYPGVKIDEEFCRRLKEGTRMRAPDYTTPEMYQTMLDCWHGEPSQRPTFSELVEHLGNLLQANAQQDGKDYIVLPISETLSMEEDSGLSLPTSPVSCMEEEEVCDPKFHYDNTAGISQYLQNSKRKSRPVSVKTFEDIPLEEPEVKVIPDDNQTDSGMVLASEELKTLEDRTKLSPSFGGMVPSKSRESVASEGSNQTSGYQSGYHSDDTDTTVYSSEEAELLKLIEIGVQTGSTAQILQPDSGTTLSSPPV", "experiment": "VEGFR2 autophosphorylation immunoblot in HEK293 cells stimulated with VEGF", "type": "cell-based", "set-up": "expressed in transfected cells; host or cells: HEK293", "procedure": "FIG. 4: Photograph of blot showing inhibition of VEGFR2 phosphorylation ectopically expressed in HEK293 cells by indicated doses of Pz-1 or vehicle (NT: not treated). HEK293 cells were transiently transfected with vector expressing VEGFR2. 36 hr following transfection, cells were serum-starved for 12 hr, treated for 2 hr with indicated concentrations of Pz-1 and finally treated with VEGF-A (100 ng/ml) for 15 min. 50 μg of total cell lysates were subjected to immunoblotting with anti-phospho-Y1175 (αpVEGFR2) VEGFR2 antibodies. The blot was normalized using anti-VEGFR2 (αVEGFR2) antibody.\nThe inhibition of RET auto-phosphorylation by Pz-1 was measured in several different cell lines including NIH3T3 fibroblasts expressing RET/C634Y or RET/M918T, TT expressing RET/C634W (MTC), Nthy-ory-3-1 (thyroid, non-transformed with RET; negative control), HEK293/RET/PTC1 (CCDC6-RET that can be found in PTC & lung cancer), HEK293/RET-KIF5B (that can be found in lung cancer), HEK293/RET/PTC3 (NCOA4-RET, that can be found in PTC & lung cancer), and HEK293 transfected with RET/C634R-V804M (FIGS. 1-3). HEK293 cells were transiently transfected with expression vectors comprising the desired mutant. […]\nProtein lysates were prepared according to standard procedures. […] Immune complexes were detected with the enhanced chemiluminescence kit (Amersham Pharmacia Biotech, Little Chalfort, UK). […]"}}, "data": [{"compound": "Cn1cc(-c2ccc3c(c2)ncn3-c2ccc(CC(=O)Nc3cc(C(C)(C)C)on3)cc2)cn1", "note": "[Pz-1, N-(5-(tert-butyl)isoxazol-3-yl)-2-(4-(5-(1-methyl-1H-pyrazol-4-yl)-1H-benzo[d]imidazol-1-yl)phenyl)acetamide]", "values": [{"measurement": "IC50", "setting": "RET wild type", "result": "< 1", "unit": "nM"}, {"measurement": "inhibition of VEGFR2 autophosphorylation", "setting": "VEGFR2; 1 nM, HEK 293 transiently transfected with VEGFR2, stimulated with VEGF", "result": "strongly inhibited"}, {"measurement": "inhibition of VEGFR2 auto-phosphorylation", "setting": "VEGFR2; nanomolar concentrations", "result": 90, "unit": "%"}]}]}
